Results reported in US20110021776A1, “COMPOSITIONS FOR THE TREATMENT OF CENTRAL NERVOUS SYSTEM DISEASES AND DISORDERS” (MediProPharma, Inc., priority 2006, published 2011).
“And” between values parts separate entries of the source, which are not always exact repeats. Equal entries are not always repeated. Where two headings read alike, the source gives them in different places. Marks after values point to notes of the source that are not given here.

Columns and labels:
[1] = Plasma pharmacokinetics, single dose in rats; format: in vivo, Sprague-Dawley rats; conditions: normal rats; for MRT inf: read-out: MRT0-inf; for MRT last: read-out: MRT0-last; for Vd: read-out: Vdss
Procedure: (§1) (IV) Pharmacokinetic Studies
(§2) The pharmacokinetic studies in Sprague-Dawley rats were performed using the protocols developed by WuXi AppTec (St. Paul, Minn., USA, and Shanghai, China. http://www.apptecls.com/).

[2] = Brain/plasma pharmacokinetics, single i.v. bolus in rats; format: in vivo, Sprague-Dawley rats; conditions: 10 mg/kg bolus i.v., normal rats; for Kp / concentration at 0.25 h / concentration at 1 h / concentration at 4 h: intravenous; for Kp: read-out: BAUC/PAUC Ratio; for AUC(0-t): read-out: AUC0-t of Plasma
Procedure: as §1, §2
The brain exposure of the compound of Example 1 is about […] higher than that required for inhibition of DYRK1A, with a Kd and IC50 at about 1 uM, or 280 ng/mL.

[3] = biological target: T1, human DYRK1A (Homo sapiens, UniProt Q13627); experiment: Human DYRK1A kinase functional assay (CEREP, LANCE detection); format: biochemical; set-up: CEREP (France), contract assay provider
Procedure: (II) Human DYRK1A Kinase Functional Assay and IC50 Measurements.
Compound profiling in a human DYRK1A kinase functional assay was performed by CEREP (France). The effects of compounds on the activity of human DYRK1A were evaluated and quantified by measuring the phosphorylation of the substrate Ulight-CFFKNIVTPRTPPPSQGK-amide (MBP) using a human recombinant enzyme and the LANCE® detection method, as described by Himpel et al, J. Biol. Chem., 275: 2431 (2000). The inhibitory activity of the compounds was expressed as a percent inhibition of the control kinase activity. Activities of the compounds at 50% or higher inhibition were selected for IC50 determination. Compounds were tested at 6 concentrations in duplicate for IC50 determination. The standard inhibitory reference compound was staurosporine, which was tested in each experiment at 8 concentrations to obtain an inhibition curve from which its IC50 value was calculated.
In certain embodiments, compounds have a low IC50 value in the DYRK1A kinase functional assay. […] The human DYRK1A kinase functional assay has been used to test the compounds of the Examples disclosed.

[4] = biological target: T1, human DYRK1A; experiment: Human DYRK1A kinase competitive binding assay (Ambit Biosciences); set-up: Ambit Biosciences (San Diego, Calif., USA), contract assay provider
Procedure: (I) Human DYRK1A Kinase Binding Assay and Binding Constant Measurements. Human DYRK1A kinase profiles in a competitive binding assay were performed by Ambit Biosciences (San Diego, Calif., USA). Activity was recorded via a competition binding assay of human DYRK1A kinase that was fused to a proprietary tag. Measurements of the amount of DYRK1A kinase bound to an immobilized, active-site directed ligand in the presence and absence of the test compound provided a percentage of DMSO control for binding of ligand. Activities between 1% and 10% were selected for Kd determination. Dendrogram representations were generated by an in-house visualization tool designated as PhyloChem. In certain embodiments, compounds have a low Kd value in the DYRK1A kinase binding assay. […] The human DYRK1A kinase binding assay has been used to test the compounds of the Examples disclosed.

[5] = Sprague-Dawley, rat, iv, i.v. 2 mg/kg, plasma
[6] = Sprague-Dawley, rat, iv, i.v. 10 mg/kg, plasma
[7] = Sprague-Dawley, rat, plasma, iv, i.v. 2 mg/kg
[8] = Sprague-Dawley, rat, plasma, iv, i.v. 10 mg/kg
[9] = Sprague-Dawley, rat, po, p.o. 10 mg/kg, plasma

`Cc1nc2c(c3c1[nH]c1ccccc13)C(=O)CC(C)(C)C2` [Example 1, 3,3,6-trimethyl-2,3,4,7-tetrahydroindolo[2,3-c]quinolin-1-one] showed an AUC(0-inf) [1, 5] of 316 ng·h/mL, an AUC(0-t) [1, 5] of 312 ng·h/mL and a half-life [1, 5] of 22.2 min. The MRT inf [1, 5] was 21.9 min, the MRT last [1, 5] was 19.9 min and the AUC(0-inf) [1, 6] was 2350 ng·h/mL. For the same molecule, the AUC(0-t) [1, 6] was 2280 ng·h/mL, the half-life [1, 6] was 45.9 min and the MRT inf [1, 6] was 53.6 min. The MRT last [1, 6] was 46.4 min, the clearance [1, 7] was 106 mL/min/kg and the Vd [1, 7] was 2.31 L/kg. The clearance [1, 8] was 71.1 mL/min/kg, the Vd [1, 8] was 3.81 L/kg and the bioavailability ([1]; Sprague-Dawley, rat, plasma, po, p.o. 10 mg/kg, calculated using AUC0-inf, read-out: F (absolute oral bioavailability)) was 34%. It also gave an AUC(0-inf) [1, 9] of 544 ng·h/mL, an AUC(0-t) [1, 9] of 541 ng·h/mL and a Cmax [1, 9] of 1860 ng/mL. For the same molecule, the Tmax [1, 9] was 15 min, the half-life [1, 9] was 49.3 min and the MRT inf [1, 9] was 39.3 min. For the same molecule, the MRT last [1, 9] was 36.6 min, the AUCExtra ([1]; i.v. 2 mg/kg, plasma) was 1.49% and the Co ([1]; i.v. 2 mg/kg, plasma) was 1665 ng/mL. It also gave a CL0-last ([1]; i.v. 10 mg/kg) of 73.1 mL/min/kg, a Vdss0-last ([1]; i.v. 10 mg/kg) of 3.39 L/kg and a Co ([1]; i.v. 10 mg/kg, plasma) of 4100 ng/mL. The AUCExtra ([1]; p.o. 10 mg/kg, plasma) was 0.672%, the “AUC0-t of Brain” value ([2]; t = 0.25 h) was 2409 ng·h/g and the “AUC0-t of Brain” value ([2]; t = 1 h) was 4727 ng·h/g. For the same molecule, the “AUC0-t of Brain” value ([2]; t = 4 h) was 5924 ng·h/g, the “AUC0-t of Brain” value ([2]; t = 8 h, the data is the value of AUC(inf)) was 6020^b ng · h/g and the “AUC0-t of Brain” value ([2]; t = 24 h, the data is the value of AUC(inf)) was 6020^b ng · h/g. The Kp ([2]; Sprague-Dawley, rat, brain and plasma, 10 mg/kg, t = 0.25 h, BrainAUC(0-t)/PlasmaAUC(0-t)) was 3.04, the Kp ([2]; Sprague-Dawley, rat, brain and plasma, 10 mg/kg, t = 1 h, BrainAUC(0-t)/PlasmaAUC(0-t)) was 2.81 and the Kp at 0.25 h ([2]; Sprague-Dawley, rat, brain and plasma, iv, 10 mg/kg, time 0.25 h, read-out: Brain/Plasma Ratio) was 2.89. It also gave a Kp at 1 h ([2]; Sprague-Dawley, rat, brain and plasma, iv, 10 mg/kg, time 1 h, read-out: Brain/Plasma Ratio) of 2.17, a Kp ([2]; Sprague-Dawley, rat, brain, 10 mg/kg, t = 4 h, BrainAUC(0-t)/PlasmaAUC(0-t)) of 2.6 and a Kp ([2]; Sprague-Dawley, rat, brain, 10 mg/kg, t = 8 h) of 2.56. The Kp ([2]; Sprague-Dawley, rat, brain, 10 mg/kg, t = 24 h) was 2.56, the concentration at 0.25 h ([2]; Sprague-Dawley, rat, brain, time 0.25 h, read-out: Mean concentration in brain) was 6900 ng/mL and the concentration at 1 h ([2]; Sprague-Dawley, rat, brain, time 1 h, read-out: Mean concentration in brain) was 1030 ng/mL. The concentration at 4 h ([2]; Sprague-Dawley, rat, brain, time 4 h, read-out: Mean concentration in brain) was 99.4 ng/mL, the Kp at 4 h ([2]; Sprague-Dawley, rat, brain, iv, 10 mg/kg, time 4 h, read-out: Brain/Plasma Ratio) was 1.69 and the concentration at 0.25 h ([2]; Sprague-Dawley, rat, plasma, time 0.25 h, read-out: Mean concentration in plasma) was 2390 ng/mL. It also gave a concentration at 1 h ([2]; Sprague-Dawley, rat, plasma, time 1 h, read-out: Mean concentration in plasma) of 476 ng/mL, a concentration at 4 h ([2]; Sprague-Dawley, rat, plasma, time 4 h, read-out: Mean concentration in plasma) of 58.7 ng/mL and an AUC(0-t) ([2]; Sprague-Dawley, rat, plasma, iv, 10 mg/kg, t = 0.25 h) of 792 ng·h/mL. The AUC(0-t) ([2]; Sprague-Dawley, rat, plasma, iv, 10 mg/kg, t = 1 h) was 1680 ng·h/mL, the AUC(0-t) ([2]; Sprague-Dawley, rat, plasma, iv, 10 mg/kg, t = 4 h) was 2280 ng·h/mL and the AUC(0-t) ([2]; Sprague-Dawley, rat, plasma, iv, 10 mg/kg, t = 8 h, the data is the value of AUC(inf)) was 2350 ng·h/mL. The AUC(0-t) ([2]; Sprague-Dawley, rat, plasma, iv, 10 mg/kg, t = 24 h, the data is the value of AUC(inf)) was 2350 ng·h/mL, the melting point was 178.3 to 180.7 °C and the IC50 [3] was < 2000 nM and ~1000 nM. For the same molecule, the Kd [4] was < 10000 nM and < 1000 nM and ~1000 nM.
